Test results reported in PubChem BioAssay AID2060607 (Molecular Pharmacology Branch, DTP, NCI, 2025).

Tested on: 876862-298-R-J1-PDC complex spheroids, viability % test/control
Experiment: Anticancer human tumor 876862-298-R-J1-PDC patient-derived endometrial carcinoma cell line growth inhibition [CLK]
Conditions: for IC50: curve of first compound; for viability, T/C: stronger effect = lower value; active = viability on the fitted dose curve at most 10% of control; inactive = the rest
In short: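 Multi-cell-type spheroids combined patient-derived tumor cells with HUVEC endothelial cells and human mesenchymal stem cells. Paired agents were dosed in half-log steps down from about clinical Cmax, or from 10 microM where Cmax was unknown.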

[1] = second compound 0.0316 µM, first compound 0.0316 µM
[2] = second compound 0.0316 µM, first compound 0.1 µM
[3] = second compound 0.0316 µM, first compound 0.316 µM
[4] = second compound 0.0316 µM, first compound 1 µM
[5] = second compound 0.1 µM, first compound 0.0316 µM
[6] = second compound 0.1 µM, first compound 0.1 µM
[7] = second compound 0.1 µM, first compound 0.316 µM
[8] = second compound 0.1 µM, first compound 1 µM
[9] = second compound 0.316 µM, first compound 0.0316 µM
[10] = second compound 0.316 µM, first compound 0.1 µM
[11] = second compound 0.316 µM, first compound 0.316 µM
[12] = second compound 0.316 µM, first compound 1 µM
[13] = second compound 1 µM, first compound 0.0316 µM
[14] = second compound 1 µM, first compound 0.1 µM
[15] = second compound 1 µM, first compound 0.316 µM
[16] = second compound 1 µM, first compound 1 µM
[17] = second compound 3.16 µM, first compound 0.0316 µM
[18] = second compound 3.16 µM, first compound 0.1 µM
[19] = second compound 3.16 µM, first compound 0.316 µM
[20] = second compound 3.16 µM, first compound 1 µM
[21] = second compound 10 µM, first compound 0.0316 µM
[22] = second compound 10 µM, first compound 0.1 µM
[23] = second compound 10 µM, first compound 0.316 µM
[24] = second compound 10 µM, first compound 1 µM
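Also: spheroids exposed to drugs for 7 days before readout.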
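For viability, T/C in this document: 100% = DMSO vehicle control wells.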

CC(=O)O[C@H]1C(=O)[C@@]2(C)[C@H]([C@H](OC(=O)c3ccccc3)[C@]3(O)C[C@H](OC(=O)[C@H](O)[C@@H](NC(=O)c4ccccc4)c4ccccc4)C(C)=C1C3(C)C)[C@]1(OC(C)=O)CO[C@@H]1C[C@@H]2O + CNC(=O)c1ccc(Nc2nc(OC3CCCC3)c3c(-c4ccc5nc(C)oc5c4)c[nH]c3n2)c(OC)c1
< 31.6 nM: IC50 (second compound 0.0316 µM) | IC50 (second compound 0.1 µM) | IC50 (second compound 0.316 µM) | IC50 (second compound 1 µM) | IC50 (second compound 3.16 µM) | IC50 (second compound 10 µM)
inactive: viability, T/C [1] 32.5% | viability, T/C [2] 37.6% | viability, T/C [3] 37.8% | viability, T/C [4] 36.5% | viability, T/C (second compound 0.0316 µM, first compound 3.16 µM) 37.3% | viability, T/C (second compound 0.0316 µM, first compound 10 µM) 43.6% | viability, T/C [5] 51.2% | viability, T/C [6] 45.7% | viability, T/C [7] 45.6% | viability, T/C [8] 42.8% | viability, T/C (second compound 0.1 µM, first compound 3.16 µM) 49.8% | viability, T/C (second compound 0.1 µM, first compound 10 µM) 50.9% | viability, T/C [9] 41.5% | viability, T/C [10] 45.6% | viability, T/C [11] 43.8% | viability, T/C [12] 41.4% | viability, T/C (second compound 0.316 µM, first compound 3.16 µM) 47.8% | viability, T/C (second compound 0.316 µM, first compound 10 µM) 45.9% | viability, T/C [13] 32.2% | viability, T/C [14] 31% | viability, T/C [15] 33.2% | viability, T/C [16] 35.4% | viability, T/C (second compound 1 µM, first compound 3.16 µM) 36% | viability, T/C (second compound 1 µM, first compound 10 µM) 40.8% | viability, T/C [17] 23.1% | viability, T/C [18] 22.9% | viability, T/C [19] 24.7% | viability, T/C [20] 26.6% | viability, T/C (second compound 3.16 µM, first compound 3.16 µM) 30.4% | viability, T/C (second compound 3.16 µM, first compound 10 µM) 33.6% | viability, T/C [21] 21.6% | viability, T/C [22] 21% | viability, T/C [23] 23.4% | viability, T/C [24] 26.1% | viability, T/C (second compound 10 µM, first compound 3.16 µM) 25.3% | viability, T/C (second compound 10 µM, first compound 10 µM) 30%

CCc1c2c(nc3ccc(O)cc13)-c1cc3c(c(=O)n1C2)COC(=O)[C@]3(O)CC + CNC(=O)c1ccc(Nc2nc(OC3CCCC3)c3c(-c4ccc5nc(C)oc5c4)c[nH]c3n2)c(OC)c1
active: viability, T/C [1] 8.16% | viability, T/C [2] 5.8% | viability, T/C [3] 5.07% | viability, T/C [4] 3.65% | viability, T/C (second compound 0.1 µM, first compound 0.01 µM) 7.94% | viability, T/C [5] 7.35% | viability, T/C [6] 4.4% | viability, T/C [7] 4.15% | viability, T/C [8] 3.49% | viability, T/C (second compound 0.316 µM, first compound 0.01 µM) 6.28% | viability, T/C [9] 5.77% | viability, T/C [10] 4.17% | viability, T/C [11] 4.42% | viability, T/C [12] 3.57% | viability, T/C (second compound 1 µM, first compound 0.00316 µM) 9.55% | viability, T/C (second compound 1 µM, first compound 0.01 µM) 5.23% | viability, T/C [13] 4.77% | viability, T/C [14] 4.25% | viability, T/C [15] 3.64% | viability, T/C [16] 2.78% | viability, T/C (second compound 3.16 µM, first compound 0.00316 µM) 7.99% | viability, T/C (second compound 3.16 µM, first compound 0.01 µM) 5.52% | viability, T/C [17] 4.06% | viability, T/C [18] 4.3% | viability, T/C [19] 3.4% | viability, T/C [20] 2.05% | viability, T/C (second compound 10 µM, first compound 0.00316 µM) 6.88% | viability, T/C (second compound 10 µM, first compound 0.01 µM) 4.97% | viability, T/C [21] 5.13% | viability, T/C [22] 4.85% | viability, T/C [23] 3.25% | viability, T/C [24] 1.96%
< 3.16 nM: IC50 (second compound 0.0316 µM) | IC50 (second compound 0.1 µM) | IC50 (second compound 0.316 µM) | IC50 (second compound 1 µM) | IC50 (second compound 3.16 µM) | IC50 (second compound 10 µM)
inactive: viability, T/C (second compound 0.0316 µM, first compound 0.00316 µM) 24% | viability, T/C (second compound 0.0316 µM, first compound 0.01 µM) 9.43% | viability, T/C (second compound 0.1 µM, first compound 0.00316 µM) 16.5% | viability, T/C (second compound 0.316 µM, first compound 0.00316 µM) 14.8%
